According to PubChem BioAssay (NCI):
Values joined by “and” are separate entries in the source; they are usually repeats but may differ in a detail not shown here. Equal entries are not always repeated.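 Protocol summary: plate cells (96-well), add compound at 5 concentrations, incubate 48 h, interpolate endpoints linearly. GI50: concentration for 50% inhibition of growth. The concentration for full growth arrest is given as TGI.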

Legend:
Assay in all cases: inhibition of tumour cell growth, NCI panel, 48 h
[1] = test system: A549 NSCLC
[2] = test system: OVCAR-3 ovarian
[3] = test system: M14 melanoma
[4] = test system: UO-31 renal
[5] = test system: NCI-H226 lung
[6] = test system: MDA-MB-435
[7] = test system: SNB-75 CNS
[8] = test system: SNB-19 CNS
[9] = test system: NCI-H23 lung
[10] = test system: UACC-257 melanoma

| SMILES | TGI [1] | TGI [2] | TGI [3] | TGI [4] | TGI [5] | TGI [6] | TGI [7] | TGI [8] | TGI [9] | TGI [10] | GI50 [1] | GI50 [2] | GI50 [4] | GI50 [6] | GI50 [8] | GI50 [9] | GI50 [10] | GI50 [3] | GI50 [5] | GI50 [7] |
| --- | --- | --- | --- | --- | --- | --- | --- | --- | --- | --- | --- | --- | --- | --- | --- | --- | --- | --- | --- | --- |
| CC[C@@]1(O)C(=O)OCc2c1cc1n(c2=O)Cc2c-1nc1ccccc1c2/C=N\NC(=O)C(N)Cc1cnc[nH]1 (some centres not stated) | > 100000 nM | > 51400 nM | 2630 nM | 2330 nM | 16500 nM | > 85900 nM | 36500 nM | > 100000 nM | 2450 nM | > 84300 nM |  |  |  |  |  |  |  |  |  |  |
| CCOC(=O)c1c(C)[nH]c(/C=C2\N=C(c3ccc[nH]3)C=C2OC)c1C | 1280 nM | 299 nM |  | 58 nM |  | 1150 nM |  | > 42300 nM | 2030 nM | 1460 nM | 45.7 nM | 15.2 nM | 23.9 nM | 18.6 nM | 735 nM | 235 nM | 40.2 nM |  |  |  |
| O=C1C=C(N2CC2)C(=O)C=C1N1CC1 | 11200 nM | 967 nM and 277 nM | 249 nM | 229 nM | 261 nM and 1400 nM |  |  | 4720 nM | 132 nM and 289 nM | 339 nM and 999 nM | 145 nM and 860 nM | 153 nM |  | 20.6 nM | 203 nM | 14.1 nM | 121 nM | 28.8 nM | 12.9 nM | 7.36 nM |
| COC(=O)c1cc2c3c(cc(O)c2[nH]1)N(C(=O)C1Cc2cc(OC)c(OC)c(OC)c2N1)CC3CCl (configuration not stated) | 1360 nM |  |  |  |  |  |  | 1050 nM | < 10 nM | < 10 nM | < 10 nM |  |  |  | < 10 nM | < 10 nM | < 10 nM |  |  |  |
| COc1cc(/C=C2\CN(S(=O)(=O)c3ccc(C)cc3)C/C(=C\c3cc(CN4CCCCC4)c(O)c(OC)c3)C2=O)cc(CN2CCCCC2)c1O |  | 3590 nM | 3270 nM | 3030 nM | 4290 nM | 1390 nM | 3410 nM |  |  | 3020 nM |  | 1850 nM | 1600 nM | 360 nM |  |  | 1450 nM | 1610 nM | 1760 nM | 1640 nM |
| COc1ccc(Cl)cc1NC(=O)c1c(NC(=O)C(F)(F)C(F)(F)F)sc2c1CCCCC2 | > 100000 nM |  | > 100000 nM | 5750 nM | 6050 nM | > 100000 nM | 5640 nM | > 100000 nM | 7380 nM |  | 2540 nM |  | 1940 nM | 2520 nM | 1570 nM | 1540 nM |  | 2660 nM | 1910 nM | 1490 nM |
| Oc1ccc2ccccc2c1N=Nc1ccccn1 | > 59300 nM |  | 7100 nM | > 25800 nM | > 87900 nM | > 100000 nM | > 86700 nM | > 100000 nM | > 100000 nM | 8020 nM | 2950 nM | 266 nM | 306 nM | 2110 nM | 2530 nM | 2820 nM | 2010 nM | 1410 nM | 1940 nM | 7490 nM |
| COc1ccc(CCCC(=O)O)c(C)c1 | > 100000 nM | 97500 nM | > 100000 nM | > 100000 nM | 91100 nM | > 100000 nM |  | > 100000 nM | > 100000 nM | > 100000 nM |  |  |  |  |  |  |  |  |  |  |
| COc1cc2cc(C(=O)N3CC(CCl)c4c3cc(N(C)C)c3ccccc43)[nH]c2c(OC)c1OC (configuration not stated) |  | 37.7 nM | 18.5 nM |  |  |  | 25.2 nM | 10600 nM | 12.7 nM |  |  |  |  |  |  |  |  |  |  |  |
